Assay [1] has as its system MOLM-13 cells. Nature of the assay: Cell viability assay (CellTiter-Glo) in MOLM-13 cells, alone or with gilteritinib. The assay is classed as cell-based. The note with it: Homo sapiens, MOLM-13, 72 h, MOLM-13 cells, three days, CellTiter-Glo. (ATP-based viability assays read luminescence as a measure of living cells.)
For assay [2], the system named is MV4;11 cells. In words: Cell viability assay (CellTiter-Glo) in MV4;11 cells, alone or with gilteritinib. It is filed as cell-based. The note with it: Homo sapiens, MV4-11, 72 h, MV4;11 cells, three days, CellTiter-Glo, read-out: MV4.
Setting [3] is: compound alone (without gilteritinib), read-out: MOLM-13 IC50.
[4] abbreviates: with gilteritinib 20 nM, read-out: MOLM-13 IC50 gilteritinib.
Where [5] appears, read: compound alone (without gilteritinib), 11 IC50.
Where [6] appears, read: with gilteritinib 10 nM, 11 IC50 gilteritinib.

19 compounds from patent US20240050428A1 (Cullgen (Shanghai), Inc., priority 2020, published 2024) can be followed below.

Where two headings read alike, the source gives them in different places.

Regarding `Cc1nn([C@H]2C[C@@H](CCCNc3ccc4c(c3)C(=O)N(C3CCC(=O)NC3=O)C4=O)C2)cc1-c1cnc2ccc(N3CCOCC3)cc2n1` (stereo partly drawn) [GS-221, 2-(2,6-Dioxopiperidin-3-yl)-5-((3-(cis-3-(3-methyl-4-(7-morpholinoquinoxalin-2-yl)-1H-pyrazol-1-yl)cyclobutyl)propyl)amino)isoindoline-1,3-dione], the IC50 in assay [1] (setting [3]), in assay [1] (setting [4]), in assay [2] (setting [5]) and in assay [2] (setting [6]) was less than 10 nM in each case.
For the compound `O=C1CCC(N2C(=O)c3ccc(NCCC[C@H]4C[C@H](n5cc(-c6cccc(NC7CCOCC7)n6)cn5)C4)cc3C2=O)C(=O)N1` (stereo partly drawn) [GS-222, 2-(2,6-Dioxopiperidin-3-yl)-5-((3-(trans-3-(4-(6-((tetrahydro-2H-pyran-4-yl)amino)pyridin-2-yl)-1H-pyrazol-1-yl)cyclobutyl)propyl)amino)isoindoline-3-dione], the IC50 in assay [1] (setting [3]) is more than 1000 nM; in assay [1] (setting [4]) it was 10 to 100 nM; in assay [2] (setting [5]) it was more than 1000 nM; in assay [2] (setting [6]), 100 to 1000 nM.
Regarding `Cc1nn([C@H]2C[C@@H](CCCNc3ccc4c(c3)C(=O)N(C3CCC(=O)NC3=O)C4=O)C2)cc1-c1cnc2ccc(C3CCOCC3)cc2n1` (stereo partly drawn) [GS-223, 2-(2,6-Dioxopiperidin-3-yl)-5-((3-(cis-3-(3-methyl-4-(7-(tetrahydro-2H-pyran-4-yl)quinoxalin-2-yl)-1H-pyrazol-1-yl)cyclobutyl)propyl)amino)isoindoline-1,3-dione], the IC50 in assay [1] (setting [3]), in assay [1] (setting [4]), in assay [2] (setting [5]) and in assay [2] (setting [6]) was less than 10 nM in each case.
Regarding `CN1CCC(c2ccc3ncc(-c4cnn([C@H]5C[C@H](CCCNc6ccc7c(c6)C(=O)N(C6CCC(=O)NC6=O)C7=O)C5)c4)nc3c2)CC1` (stereo partly drawn) [GS-224, 2-(2,6-Dioxopiperidin-3-yl)-5-((3-(trans-3-(4-(7-(1-methylpiperidin-4-yl)quinoxalin-2-yl)-1H-pyrazol-1-yl)cyclobutyl)propyl)amino)isoindoline-1,3-dione], the IC50 in assay [1] (setting [3]) was 100 to 1000 nM; in assay [1] (setting [4]), less than 10 nM; in assay [2] (setting [5]), 100 to 1000 nM; in assay [2] (setting [6]), 10 to 100 nM.
Consider `O=C1CCC(N2Cc3ccc(CCCCC4CC(n5cc(-c6cnc7ccccc7n6)cn5)C4)cc3C2=O)C(=O)N1` (stereo not shown) [GS-225, 3-(1-Oxo-6-(4-(3-(4-(quinoxalin-2-yl)-1H-pyrazol-1-yl)cyclobutyl)butyl)isoindolin-2-yl)piperidine-2,6-dione], for which the IC50 in assay [1] (setting [3]) was more than 1000 nM; in assay [1] (setting [4]), 10 to 100 nM; in assay [2] (setting [5]), 100 to 1000 nM; in assay [2] (setting [6]) it was 10 to 100 nM.
Take `O=C1CCC(N2Cc3cc(CCCCC4CC(n5cc(-c6cnc7ccccc7n6)cn5)C4)ccc3C2=O)C(=O)N1` (stereo not shown) [GS-226, 3-(1-Oxo-5-(4-(3-(4-(quinoxalin-2-yl)-1H-pyrazol-1-yl)cyclobutyl)butyl)isoindolin-2-yl)piperidine-2,6-dione]: the IC50 in assay [1] (setting [3]) is more than 1000 nM; in assay [1] (setting [4]), more than 1000 nM; in assay [2] (setting [5]) it was 100 to 1000 nM; in assay [2] (setting [6]) it was 100 to 1000 nM.
For `O=C1CCC(N2C(=O)c3ccc(NCCC[C@H]4C[C@@H](n5cc(-c6cnc7ccc(N8CCOCC8)cc7n6)c(C6CC6)n5)C4)cc3C2=O)C(=O)N1` (stereo partly drawn) [GS-227, 5-((3-(cis-3-(3-Cyclopropyl-4-(7-morpholinoquinoxalin-2-yl)-1H-pyrazol-1-yl)cyclobutyl)propyl)amino)-2-(2,6-dioxopiperidin-3-yl)isoindoline-1,3-dione], the IC50 in assay [1] (setting [3]), in assay [1] (setting [4]), in assay [2] (setting [5]) and in assay [2] (setting [6]) was less than 10 nM throughout.
For the compound `O=C1CCC(N2C(=O)c3ccc(NCCC[C@H]4C[C@H](n5cc(-c6cnc7ccc(CN8CCNCC8)cc7n6)c(C6CC6)n5)C4)cc3C2=O)C(=O)N1` (stereo partly drawn) [GS-228, 5-((3-(trans-3-(3-Cyclopropyl-4-(7-(piperazin-1-ylmethyl)quinoxalin-2-yl)-1H-pyrazol-1-yl)cyclobutyl)propyl)amino)-2-(2,6-dioxopiperidin-3-yl)isoindoline-1,3-dione], the IC50 in assay [1] (setting [3]), in assay [1] (setting [4]), in assay [2] (setting [5]) and in assay [2] (setting [6]) was less than 10 nM throughout.
As to `O=C1CCC(N2C(=O)c3ccc(NCCC[C@H]4C[C@H](n5cc(-c6cnc7ccc(OC8CCNCC8)cc7n6)c(C6CC6)n5)C4)cc3C2=O)C(=O)N1` (stereo partly drawn) [GS-229, 5-((3-(trans-3-(3-Cyclopropyl-4-(7-(piperidin-4-yloxy)quinoxalin-2-yl)-1H-pyrazol-1-yl)cyclobutyl)propyl)amino)-2-(2,6-dioxopiperidin-3-yl)isoindoline-1,3-dione], the IC50 in assay [1] (setting [3]) is 10 to 100 nM; in assay [1] (setting [4]) it was less than 10 nM; in assay [2] (setting [5]), 10 to 100 nM; in assay [2] (setting [6]), less than 10 nM.
Regarding `O=C1CCC(N2C(=O)c3ccc(NCCC[C@H]4C[C@H](n5cc(-c6cnc7ccc(CN8CCOCC8)cc7n6)c(C6CC6)n5)C4)cc3C2=O)C(=O)N1` (stereo partly drawn) [GS-230, 5-((3-(trans-3-(3-Cyclopropyl-4-(7-(morpholinomethyl)quinoxalin-2-yl)-1H-pyrazol-1-yl)cyclobutyl)propyl)amino)-2-(2,6-dioxopiperidin-3-yl)isoindoline-1,3-dione], the IC50 in assay [1] (setting [3]) is 10 to 100 nM; in assay [1] (setting [4]), less than 10 nM; in assay [2] (setting [5]), 10 to 100 nM; in assay [2] (setting [6]), less than 10 nM.
In the case of `O=C1CCC(N2C(=O)c3ccc(NCCC[C@H]4C[C@@H](n5cc(-c6cnc7ccc(C8CCNCC8)cc7n6)c(C6CC6)n5)C4)cc3C2=O)C(=O)N1` (stereo partly drawn) [GS-231, 5-((3-(cis-3-(3-Cyclopropyl-4-(7-(piperidin-4-yl)quinoxalin-2-yl)-1H-pyrazol-1-yl)cyclobutyl)propyl)amino)-2-(2,6-dixopiperidin-3-yl)isoindoline-1,3-dione], the IC50 was 10 to 100 nM in assay [1] (setting [3]), less than 10 nM in assay [1] (setting [4]), 10 to 100 nM in assay [2] (setting [5]) and less than 10 nM in assay [2] (setting [6]).
Turning to `O=C1CCC(N2C(=O)c3ccc(NCCC[C@H]4C[C@H](n5cc(-c6ccccc6)cn5)C4)cc3C2=O)C(=O)N1` (stereo partly drawn) [GS-232, 2-(2,6-Dioxopiperidin-3-yl)-5-((3-(trans-3-(4-phenyl-1H-pyrazol-1-yl)cyclobutyl)propyl)amino)isoindoline-1,3-dione], the IC50 is 100 to 1000 nM in assay [1] (setting [3]), more than 1000 nM in assay [1] (setting [4]), 100 to 1000 nM in assay [2] (setting [5]) and 100 to 1000 nM in assay [2] (setting [6]).
Take `N#Cc1cccc2nc(-c3cnn([C@H]4C[C@H](CCCNc5ccc6c(c5)C(=O)N(C5CCC(=O)NC5=O)C6=O)C4)c3)cnc12` (stereo partly drawn) [GS-233, 2-(1-(trans-3-(3-((2-(2,6-Dioxopiperidin-3-yl)-1,3-dioxoisoindolin-5-yl)amino)propyl)cyclobutyl)-1H-pyrazol-4-yl)quinoxaline-5-carbonitrile]: the IC50 fell in the range of 100 to 1000 nM in assay [1] (setting [3]), 10 to 100 nM in assay [1] (setting [4]), 100 to 1000 nM in assay [2] (setting [5]) and 10 to 100 nM in assay [2] (setting [6]).
On to `O=C1CCC(N2C(=O)c3ccc(NCCC[C@H]4C[C@H](n5cc(-c6cnc7c(F)cccc7n6)cn5)C4)cc3C2=O)C(=O)N1` (stereo partly drawn) [GS-234, 2-(2,6-Dioxopiperidin-3-yl)-5-((3-(trans-3-(4-(5-fluoroquinoxalin-2-yl)-1H-pyrazol-1-yl)cyclobutyl)propyl)amino)isoindoline-1,3-dione], for which the IC50 in assay [1] (setting [3]) was 100 to 1000 nM; in assay [1] (setting [4]) it was 10 to 100 nM; in assay [2] (setting [5]), less than 10 nM; in assay [2] (setting [6]), 10 to 100 nM.
Take `O=C1CCC(N2C(=O)c3ccc(NCCC[C@H]4C[C@H](n5cc(-c6cnccn6)cn5)C4)cc3C2=O)C(=O)N1` (stereo partly drawn) [GS-235, 2-(2,6-Dioxopiperidin-3-yl)-5-((3-(trans-3-(4-(pyrazin-2-yl)-1H-pyrazol-1-yl)cyclobutyl)propyl)amino)isoindoline-1,3-dione]: the IC50 was more than 1000 nM in assay [1] (setting [3]), 100 to 1000 nM in assay [1] (setting [4]), less than 10 nM in assay [2] (setting [5]) and 100 to 1000 nM in assay [2] (setting [6]).
For the compound `O=C1CCC(N2C(=O)c3ccc(NCCC[C@H]4C[C@H](n5cc(-c6cccc(C7CCOCC7)n6)cn5)C4)cc3C2=O)C(=O)N1` (stereo partly drawn) [GS-236, 2-(2,6-Dioxopiperidin-3-yl)-5-((3-(trans-3-(4-(6-(tetrahydro-2H-pyran-4-yl)pyridin-2-yl)-1H-pyrazol-1-yl)cyclobutyl)propyl)amino)isoindoline-1,3-dione], the IC50 in assay [1] (setting [3]) lay within 100 to 1000 nM; in assay [1] (setting [4]) it was 10 to 100 nM; in assay [2] (setting [5]) it was 100 to 1000 nM; in assay [2] (setting [6]), 10 to 100 nM.
With `CN1CCC(c2cccc(-c3cnn([C@H]4C[C@H](CCCNc5ccc6c(c5)C(=O)N(C5CCC(=O)NC5=O)C6=O)C4)c3)n2)CC1` (stereo partly drawn) [GS-237, 2-(2,6-Dioxopiperidin-3-yl)-5-((3-(trans-3-(4-(6-(1-methylpiperidin-4-yl)pyridin-2-yl)-1H-pyrazol-1-yl)cyclobutyl)propyl)amino)isoindoline-1,3-dione], the IC50 in assay [1] (setting [3]) is more than 1000 nM; in assay [1] (setting [4]), 100 to 1000 nM; in assay [2] (setting [5]) it was more than 1000 nM; in assay [2] (setting [6]) it was 100 to 1000 nM.
Consider `O=C1CCC(N2C(=O)c3ccc(NCCC[C@H]4C[C@H](n5cc(-c6cccc(C7CCNCC7)n6)cn5)C4)cc3C2=O)C(=O)N1` (stereo partly drawn) [GS-238, 2-(2,6-Dioxopiperidin-3-yl)-5-((3-(trans-3-(4-(6-(piperidin-4-yl)pyridin-2-yl)-1H-pyrazol-1-yl)cyclobutyl)propyl)amino)isoindoline-1,3-dione], for which the IC50 lay in the range of 10 to 100 nM in assay [1] (setting [3]), 10 to 100 nM in assay [1] (setting [4]), 100 to 1000 nM in assay [2] (setting [5]) and 10 to 100 nM in assay [2] (setting [6]).
For `O=C1CCC(N2C(=O)c3ccc(NCCC[C@H]4C[C@H](n5cc(-c6ccnc(N7CCOCC7)n6)cn5)C4)cc3C2=O)C(=O)N1` (stereo partly drawn) [GS-239, 2-(2,6-Dioxopiperidin-3-yl)-5-((3-(trans-3-(4-(2-morpholinopyrimidin-4-yl)-1H-pyrazol-1-yl)cyclobutyl)propyl)amino)isoindoline-1,3-dione], the IC50 in assay [1] (setting [3]) is more than 1000 nM; in assay [1] (setting [4]), 10 to 100 nM; in assay [2] (setting [5]) it was 100 to 1000 nM; in assay [2] (setting [6]), 10 to 100 nM.
